pEC50, pIC50: −log10 of the molar value. Like-named read-outs stand apart in the source and are kept apart here.
Experiments:
[1] = target: WRN (BV08), human Werner helicase (Uniprot Q14191, amino acids 517-1235 with L1074F point mutation) (Homo sapiens (Human), UniProt Q14191, L1074F); assay: WRN (BV08) ADP-Glo assay; type: biochemical; conditions: class symbols A-E, read-out: ADP-Glo_hWRN_IC50
[2] = system: p21 induction in HCT116 cells; assay: p21 induction in HCT116 cells; type: cell-based; conditions: read-out: P21_EC50
Method in brief: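 EC50 from non-linear curve fit of p21 immunofluorescence (800 nm), with GAPDH (700 nm) read alongside. DMSO and a reference WRN inhibitor served as low and high controls. Cells (2,000/well) got 11 compound concentrations in duplicate for 24 h at 37 °C.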

[3] = Homo sapiens, HCT-116, 24 h, HCT116 cells, 24 h compound incubation
[4] = HCT116 cells, 24 h compound incubation

WRN (BV08), human Werner helicase (Uniprot Q14191, amino acids 517-1235 with L1074F point mutation), sequence (Q14191 other isoform, or with tags, fused parts or gaps L1074F (already in the parent)): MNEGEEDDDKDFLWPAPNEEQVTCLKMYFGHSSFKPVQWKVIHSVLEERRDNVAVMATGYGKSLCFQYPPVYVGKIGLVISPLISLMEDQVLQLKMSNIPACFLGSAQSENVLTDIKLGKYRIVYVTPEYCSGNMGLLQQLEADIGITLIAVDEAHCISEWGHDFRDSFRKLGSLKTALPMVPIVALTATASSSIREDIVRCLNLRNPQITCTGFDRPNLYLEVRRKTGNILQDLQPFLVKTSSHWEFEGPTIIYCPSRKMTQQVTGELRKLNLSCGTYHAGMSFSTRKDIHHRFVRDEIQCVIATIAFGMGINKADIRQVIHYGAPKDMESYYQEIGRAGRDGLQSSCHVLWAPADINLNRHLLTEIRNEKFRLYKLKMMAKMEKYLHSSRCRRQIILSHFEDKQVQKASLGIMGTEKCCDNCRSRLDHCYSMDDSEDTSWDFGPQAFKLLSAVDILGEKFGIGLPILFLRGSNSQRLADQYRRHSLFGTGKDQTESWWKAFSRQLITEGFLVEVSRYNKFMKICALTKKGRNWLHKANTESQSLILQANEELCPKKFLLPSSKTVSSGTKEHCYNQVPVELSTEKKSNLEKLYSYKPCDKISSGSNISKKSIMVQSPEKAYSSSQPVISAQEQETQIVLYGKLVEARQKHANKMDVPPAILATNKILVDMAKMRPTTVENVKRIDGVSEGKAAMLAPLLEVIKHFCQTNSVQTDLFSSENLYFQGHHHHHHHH

Work on `CCc1c(N2CCN(C(=O)c3ncnc(C)c3O)[C@H](C)[C@H]2C)c(=O)c2nc(N(C)C)cnc2n1CC(=O)Nc1ccc(C(F)(F)F)cc1Cl` (single isomer, unassigned) [I-233, N-(2-chloro-4-(trifluoromethyl)phenyl)-2-(2-(dimethylamino)-6-ethyl-7-(4-(5-hydroxy-6-methylpyrimidine-4-carbonyl)-2,3-dimethylpiperazin-1-yl)-8-oxopyrido[2,3-b]pyrazin-5(8H)-yl)acetamide] yielded a pIC50 [1] of 7.30 to 8.30 and a pEC50 [2, 3] of less than 5.30.

With `CCc1c(N2CCN(C(=O)c3ncnc(C)c3O)[C@@H](C)[C@@H]2C)c(=O)c2nc(N(C)C)cnc2n1CC(=O)Nc1ccc(C(F)(F)F)cc1Cl` (single isomer, unassigned) [I-234, N-(2-chloro-4-(trifluoromethyl)phenyl)-2-(2-(dimethylamino)-6-ethyl-7-(4-(5-hydroxy-6-methylpyrimidine-4-carbonyl)-2,3-dimethylpiperazin-1-yl)-8-oxopyrido[2,3-b]pyrazin-5(8H)-yl)acetamide] the pIC50 [1] was 7.30 to 8.30 and the pEC50 [2, 3] was 5.70 to 6.30.

Compound `CCc1c(N2CCN(C(=O)c3ncnc(C)c3O)CC2)c(=O)c2nc([C@H]3CC3(F)F)cnc2n1CC(=O)Nc1ccc(C(F)(F)F)cc1Cl` (single isomer, unassigned) [I-238] has a pIC50 [1] of 7.30 to 8.30 and a pEC50 [2, 3] of less than 5.30.

`CCc1c(N2C[C@@H]3CC[C@H]2CN3C(=O)c2ncnc(C)c2O)c(=O)c2nc(N(C)C)cnc2n1CC(=O)Nc1ccc(C(F)(F)F)cc1Cl` (single isomer, unassigned) [I-247, N-(2-chloro-4-(trifluoromethyl)phenyl)-2-(2-(dimethylamino)-6-ethyl-7-(5-(5-hydroxy-6-methylpyrimidine-4-carbonyl)-2,5-diazabicyclo[2.2.2]octan-2-yl)-8-oxopyrido[2,3-b]pyrazin-5(8H)-yl)acetamide] was tested, and the pIC50 [1] was 6.30 to 7.00 and the pEC50 [2, 3] was less than 5.30.

With `CCc1c(N2CCN(C(=O)c3c(OC)ncc(C)c3O)[C@@H]3CCC[C@@H]32)c(=O)c2nc(N(C)C)cnc2n1CC(=O)Nc1ccc(C(F)(F)F)cc1Cl` (single isomer, unassigned) [I-251, N-(2-chloro-4-(trifluoromethyl)phenyl)-2-(2-(dimethylamino)-6-ethyl-7-(4-(4-hydroxy-2-methoxy-5-methylnicotinoyl)octahydro-1H-cyclopenta[b]pyrazin-1-yl)-8-oxopyrido[2,3-b]pyrazin-5(8H)-yl)acetamide] the pIC50 [1] was 7.30 to 8.30 and the pEC50 [2, 3] was greater than 6.30.

Compound `CCc1c(N2CCN(C(=O)c3c(OC)ncc(C)c3O)[C@H]3CCC[C@H]32)c(=O)c2nc(N(C)C)cnc2n1CC(=O)Nc1ccc(C(F)(F)F)cc1Cl` (single isomer, unassigned) [I-252, N-(2-chloro-4-(trifluoromethyl)phenyl)-2-(2-(dimethylamino)-6-ethyl-7-(4-(4-hydroxy-2-methoxy-5-methylnicotinoyl)octahydro-1H-cyclopenta[b]pyrazin-1-yl)-8-oxopyrido[2,3-b]pyrazin-5(8H)-yl)acetamide] has a pIC50 [1] of 6.30 to 7.00 and a pEC50 [2, 3] of 5.30 to 5.70.

Compound `CCc1c(N2C[C@H]3C[C@@H]2CN3C(=O)c2ncnc(C)c2O)c(=O)c2nc(N(C)C)cnc2n1CC(=O)Nc1ccc(C(F)(F)F)cc1Cl` (single isomer, unassigned) [I-256] has a pIC50 [1] of 6.30 to 7.00 and a pEC50 [2, 3] of less than 5.30.

Work on `CCc1c(N2C[C@H]3C[C@@H]2CN3C(=O)c2ncnc(C)c2O)c(=O)c2nc(N(C)C)cnc2n1CC(=O)Nc1ccc(C(F)(F)F)cc1Cl` (single isomer, unassigned) [I-257] yielded a pIC50 [1] of less than 6.30 and a pEC50 [2, 4] of less than 5.30.

In the case of `CCc1c([C@@]23CCN(C(=O)c4ncnc(C)c4O)C[C@@H]2C3)c(=O)c2nc(N(C)C)cnc2n1CC(=O)Nc1ccc(C(F)(F)F)cc1Cl` (single isomer, unassigned) [I-276, N-(2-chloro-4-(trifluoromethyl)phenyl)-2-(2-(dimethylamino)-6-ethyl-7-(3-(5-hydroxy-6-methylpyrimidine-4-carbonyl)-3-azabicyclo[4.1.0]heptan-6-yl)-8-oxopyrido[2,3-b]pyrazin-5(8H)-yl)acetamide], the pIC50 [1] was 7.30 to 8.30 and the pEC50 [2, 3] was 5.70 to 6.30.

`CCc1c([C@]23CCN(C(=O)c4ncnc(C)c4O)C[C@H]2C3)c(=O)c2nc(N(C)C)cnc2n1CC(=O)Nc1ccc(C(F)(F)F)cc1Cl` (single isomer, unassigned) [I-277, N-(2-chloro-4-(trifluoromethyl)phenyl)-2-(2-(dimethylamino)-6-ethyl-7-(3-(5-hydroxy-6-methylpyrimidine-4-carbonyl)-3-azabicyclo[4.1.0]heptan-6-yl)-8-oxopyrido[2,3-b]pyrazin-5(8H)-yl)acetamide] gave a pIC50 [1] of 7.30 to 8.30 and a pEC50 [2, 3] of 5.70 to 6.30.

`CCc1c(N2CCN(C(=O)c3ncnc(C)c3O)C3COCC32)c(=O)c2nc(N(C)C)cnc2n1CC(=O)Nc1ccc(C(F)(F)F)cc1Cl` (single isomer, unassigned) [I-278, N-(2-chloro-4-(trifluoromethyl)phenyl)-2-(2-(dimethylamino)-6-ethyl-7-(4-(5-hydroxy-6-methylpyrimidine-4-carbonyl)hexahydrofuro[3,4-b]pyrazin-1(2H)-yl)-8-oxopyrido[2,3-b]pyrazin-5(8H)-yl)acetamide] gave a pIC50 [1] of 7.30 to 8.30 and a pEC50 [2, 4] of 5.30 to 5.70.

In the case of `CCc1c(N2CCN(C(=O)c3ncnc(C)c3O)C3COCC32)c(=O)c2nc(N(C)C)cnc2n1CC(=O)Nc1ccc(C(F)(F)F)cc1Cl` (single isomer, unassigned) [I-279, N-(2-chloro-4-(trifluoromethyl)phenyl)-2-(2-(dimethylamino)-6-ethyl-7-(4-(5-hydroxy-6-methylpyrimidine-4-carbonyl)hexahydrofuro[3,4-b]pyrazin-1(2H)-yl)-8-oxopyrido[2,3-b]pyrazin-5(8H)-yl)acetamide], the pIC50 [1] was 6.30 to 7.00 and the pEC50 [2, 4] was less than 5.30.

Work on `CCc1c(N2CCN(C(=O)c3ncnc(C)c3O)C3COCC32)c(=O)c2nc(N(C)C)cnc2n1CC(=O)Nc1ccc(C(F)(F)F)cc1Cl` (single isomer, unassigned) [I-294, N-(2-chloro-4-(trifluoromethyl)phenyl)-2-(2-(dimethylamino)-6-ethyl-7-(4-(5-hydroxy-6-methylpyrimidine-4-carbonyl)hexahydrofuro[3,4-b]pyrazin-1(2H)-yl)-8-oxopyrido[2,3-b]pyrazin-5(8H)-yl)acetamide] yielded a pIC50 [1] of less than 6.30 and a pEC50 [2, 4] of less than 5.30.

With `CCc1c(N2CCN(C(=O)c3ncnc(C)c3O)[C@H]3CC(F)(F)C[C@@H]32)c(=O)c2nc(N(C)C)cnc2n1CC(=O)Nc1ccc(C(F)(F)F)cc1Cl` (single isomer, unassigned) [I-296, N-(2-chloro-4-(trifluoromethyl)phenyl)-2-(7-(6,6-difluoro-4-(5-hydroxy-6-methylpyrimidine-4-carbonyl)octahydro-1H-cyclopenta[b]pyrazin-1-yl)-2-(dimethylamino)-6-ethyl-8-oxopyrido[2,3-b]pyrazin-5(8H)-yl)acetamide] the pIC50 [1] was 7.30 to 8.30 and the pEC50 [2, 3] was 5.70 to 6.30.

Work on `CCc1c(N2CCN(C(=O)c3ncnc(C)c3O)[C@@H]3CC(F)(F)C[C@H]32)c(=O)c2nc(N(C)C)cnc2n1CC(=O)Nc1ccc(C(F)(F)F)cc1Cl` (single isomer, unassigned) [I-297, N-(2-chloro-4-(trifluoromethyl)phenyl)-2-(7-(6,6-difluoro-4-(5-hydroxy-6-methylpyrimidine-4-carbonyl)octahydro-1H-cyclopenta[b]pyrazin-1-yl)-2-(dimethylamino)-6-ethyl-8-oxopyrido[2,3-b]pyrazin-5(8H)-yl)acetamide] yielded a pIC50 [1] of 6.30 to 7.00 and a pEC50 [2, 3] of less than 5.30.

`CCc1c(N2CCN(C(=O)c3ncnc(C)c3O)[C@@H](COC)C2)c(=O)c2nc(N(C)C)cnc2n1CC(=O)Nc1ccc(C(F)(F)F)cc1Cl` (single isomer, unassigned) [I-303, N-(2-chloro-4-(trifluoromethyl)phenyl)-2-(2-(dimethylamino)-6-ethyl-7-(4-(5-hydroxy-6-methylpyrimidine-4-carbonyl)-3-(methoxymethyl)piperazin-1-yl)-8-oxopyrido[2,3-b]pyrazin-5(8H)-yl)acetamide] gave a pIC50 [1] of 7.00 to 7.30 and a pEC50 [2, 3] of less than 5.30.

With `CCc1c(N2CCN(C(=O)c3ncnc(C)c3O)CC2)c(=O)c2nc(C3CC3(F)F)cnc2n1CC(=O)Nc1ccc(C(F)(F)F)cc1Cl` (stereo in doubt) [I-237, N-[2-chloro-4-(trifluoromethyl)phenyl]-2-{2-[(1R)-2,2-difluorocyclopropyl]-6-ethyl-7-[4-(5-hydroxy-6-methylpyrimidine-4-carbonyl)piperazin-1-yl]-8-oxo-5H,8H-pyrido[2,3-b]pyrazin-5-yl}acetamide] the pIC50 [1] was 7.30 to 8.30 and the pEC50 [2, 3] was less than 5.30.

Compound `CCc1c(N2CCN(C(=O)c3ncnc(C)c3O)CC2)c(=O)c2ncc(C)nc2n1CC(=O)Nc1ccc(C(F)(F)F)cc1Cl` [I-1, N-(2-chloro-4-(trifluoromethyl)phenyl)-2-(6-ethyl-7-(4-(5-hydroxy-6-methylpyrimidine-4-carbonyl)piperazin-1-yl)-3-methyl-8-oxopyrido[2,3-b]pyrazin-5(8H)-yl)acetamide] has a pIC50 [1] of 7.30 to 8.30 and a pEC50 ([2]; Homo sapiens, HCT-116, 24 h) of 5.30 to 5.70.

In the case of `CCc1c(N2CCN(C(=O)c3cnn(C)c3)CC2)c(=O)c2ncc(C)nc2n1CC(=O)Nc1ccc(C(F)(F)F)cc1Cl` [I-2, N-(2-chloro-4-(trifluoromethyl)phenyl)-2-(6-ethyl-3-methyl-7-(4-(1-methyl-1H-pyrazole-4-carbonyl)piperazin-1-yl)-8-oxopyrido[2,3-b]pyrazin-5(8H)-yl)acetamide], the pIC50 [1] was 7.00 to 7.30 and the pEC50 [2, 3] was less than 5.30.

With `CCc1c(N2CCN(C(=O)c3ncccc3O)CC2)c(=O)c2ncc(C)nc2n1CC(=O)Nc1ccc(C(F)(F)F)cc1Cl` [I-3, N-(2-chloro-4-(trifluoromethyl)phenyl)-2-(6-ethyl-7-(4-(3-hydroxypicolinoyl)piperazin-1-yl)-3-methyl-8-oxopyrido[2,3-b]pyrazin-5(8H)-yl)acetamide] the pIC50 [1] was 7.30 to 8.30 and the pEC50 [2, 3] was less than 5.30.

Reference: patent US20250034136A1 (Nimbus Wadjet, Inc., priority 2023, published 2025)
